We go through 46 compounds from patent US9776965B2, “Pyrrolidin-2-one and piperidin-2-one derivatives as 11-beta hydroxysteroid dehydrogenase inhibitors” (Janssen Pharmaceutica N.V., priority 2004, dated 2017).

Assay [1] concerns the target 11b-HSD1 (Homo sapiens, UniProt P28845). In words: Enzymatic assay, 11b-HSD1 dependent conversion of cortisone into cortisol (reductase activity). The class given is biochemical. As to conditions: recombinant protein, 2 μM cortisone, 45 min at 37 C; read-out: [C1] HSD1-prot Reduct Score. Here is the method: The effects of compounds on 11b-HSD1 dependent conversion of cortisone into cortisol (reductase activity) was studied in a reaction mixture containing 30 mM Tris-HCl buffer pH 7.2, 180 μM NADPH, 1 mM EDTA, 2 μM cortisone, 1 μl drug and/or solvent and 11 μg recombinant protein in a final volume of 100 μl.
All incubations were performed for 45 min at 37 C in a water bath. The reaction was stopped by adding 100 μl acetonitrile containing 20 μg corticosterone as internal standard. After centrifugation, the product formation was analysed in the supernatant by HPLC on a Hypersyl BDS-C18 column using 0.05 mM ammonium acetate/methanol (50/50) as solvent. In all of the aforementioned assays, the drugs to be tested were taken from a stock solution and tested at a final concentration ranging from […] to 3.10^−9M. From the thus obtained dose response curves, the pIC50 value was calculated and scored as follows; Score 1=pIC50 value<5, Score 2=pIC50 value in the range of 5 to 6, Score 3=pIC50 value>6. (in this table NT stands for Not Tested).

In assay [2] the target is T1, 11b-HSD1 (Mus musculus, UniProt P50172).
T1 construct: Fibroblasts were differentiated into adipocytes; endogenous in cells; host or cells: differentiated 3T3-L1 cells (ATCC-CL-173)
In words: Cellular assay, 11b-HSD1 activity in differentiated 3T3-L1 cells. It is filed as cell-based. As to conditions: 4 hour pre-incubation, read-out: [C2] HSD1 cellular 3T3-L1 Score. Here is the method:
The effects on 11b-HSD1 activity was measured in differentiated 3T3-L1 cells and rat hepatocytes.
Mouse fibroblast 3T3-L1 cells (ATCC-CL-173) were seeded at a density of 16500 cells/ml in 12 well plates and grown for 7 days in DMEM medium (supplemented with 10% heat inactivated foetal calf serum, 2 mM glutamine and 25 mg gentamycin) at 37 C in a humidified 5% CO2 atmosphere. Medium was refreshed twice a week. Fibroblasts were differentiated into adipocytes at 37 C in a 5% CO2 humidified atmosphere in growth medium containing 2 μg/ml insulin, 55 μg/ml IBMX and 39.2 μg/ml dexamethasone.
Following a 4 hour pre-incubation with test compound, 0.5 μCi ^3H-cortisone or dehydrocorticosterone, was added to the cultures. One hour later, the medium was extracted on Extrelut^3-columns with 15 ml diethyl ether and the extract was analysed by HPLC as described above.
As for the enzymatic assays, the compounds to be tested were taken from a stock solution and tested at a final concentration ranging from […] to 3.10^−9M. From the thus obtained dose response curves, the pIC50 value was calculated and scored as follows; Score 1=pIC50 value<5, Score 2=pIC50 value in the range of 5 to 6, Score 3=pIC50 value>6. Some of the thus obtained results are summarized in the table below (in this table NT stands for Not Tested).

Chain of 11b-HSD1 (Homo sapiens, UniProt P28845) (P28845 whole entry): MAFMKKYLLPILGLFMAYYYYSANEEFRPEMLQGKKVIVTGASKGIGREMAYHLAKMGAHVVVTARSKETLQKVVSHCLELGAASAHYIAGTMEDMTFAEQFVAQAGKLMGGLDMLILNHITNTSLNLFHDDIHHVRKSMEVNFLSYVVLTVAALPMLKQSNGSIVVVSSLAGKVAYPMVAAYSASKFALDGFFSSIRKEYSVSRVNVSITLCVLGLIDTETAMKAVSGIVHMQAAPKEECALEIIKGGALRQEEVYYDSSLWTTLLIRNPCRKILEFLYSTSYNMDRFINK
T1 sequence (P50172 whole entry): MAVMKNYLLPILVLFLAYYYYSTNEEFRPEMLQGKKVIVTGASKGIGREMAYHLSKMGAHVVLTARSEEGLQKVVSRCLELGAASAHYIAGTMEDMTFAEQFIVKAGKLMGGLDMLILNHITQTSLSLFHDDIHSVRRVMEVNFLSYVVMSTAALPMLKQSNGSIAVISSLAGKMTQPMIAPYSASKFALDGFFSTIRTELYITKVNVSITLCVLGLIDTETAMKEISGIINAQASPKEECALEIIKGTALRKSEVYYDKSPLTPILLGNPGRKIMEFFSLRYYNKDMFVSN

As to `CCCC1(Cc2ccccc2C)CCN([C@@H](C)c2ccccc2)C1=O` (mixture of isomers) [Compound 146], the IC50 at 11b-HSD1 [1] and at 11b-HSD1 [2] was over 10 µM each time.

Consider `Cc1ccccc1CC1(Cc2ccccc2)CCN([C@@H](C)c2ccccc2)C1=O` (mixture of isomers) [Compound 147], for which the IC50 at 11b-HSD1 [1] and at 11b-HSD1 [2] was over 10 µM each time. `CCC(CC1(CC(CC)c2ccccc2)CCN([C@@H](C)c2ccccc2)C1=O)c1ccccc1` (mixture of isomers) [Compound 165]: the IC50 on 11b-HSD1 [1] and on 11b-HSD1 [2] was over 10 µM throughout. As to `O=C1C(Cc2c(Cl)cccc2Cl)CCN1[C@H](Cc1ccccc1)c1ccccc1` (single isomer, unassigned) [Compound 103], the IC50 at 11b-HSD1 [1] and on 11b-HSD1 [2] was over 10 µM throughout. Consider `COc1ccccc1C[C@@H]1CCN([C@@H](C)c2ccccc2)C1=O` [Compound 8], for which the IC50 at 11b-HSD1 [1] and at 11b-HSD1 [2] was 1 to 10 µM throughout. Regarding `C[C@@H](c1ccccc1)N1CC[C@H](Cc2cccc(Cl)c2Cl)C1=O` [Compound 11], the IC50 was under 1 µM on 11b-HSD1 [1] and 1 to 10 µM at 11b-HSD1 [2].

For `C[C@@H](c1ccccc1)N1CC[C@@H](Cc2cccc(Cl)c2Cl)C1=O` [Compound 12], the IC50 on 11b-HSD1 [1] and at 11b-HSD1 [2] was 1 to 10 µM in each case. Consider `Cc1cccc(C[C@H]2CCN([C@@H](C)c3ccccc3)C2=O)c1` [Compound 15], for which the IC50 on 11b-HSD1 [1] and at 11b-HSD1 [2] was 1 to 10 µM throughout. As to `Cc1cccc(C[C@@H]2CCN([C@@H](C)c3ccccc3)C2=O)c1` [Compound 16], the figures for the IC50 at 11b-HSD1 [1] and at 11b-HSD1 [2] were over 10 µM and 1 to 10 µM, respectively. On to `C[C@@H](c1ccccc1)N1CC[C@H](Cc2cccc(Cl)c2)C1=O` [Compound 17], for which the IC50 at 11b-HSD1 [1] and on 11b-HSD1 [2] was 1 to 10 µM each time.

In the case of `C[C@@H](c1ccccc1)N1CC[C@@H](Cc2cccc(Cl)c2)C1=O` [Compound 18], the IC50 at 11b-HSD1 [1] and on 11b-HSD1 [2] was 1 to 10 µM each time. As for `COc1cccc(C[C@H]2CCN([C@@H](C)c3ccccc3)C2=O)c1` [Compound 19], the results for the IC50 at 11b-HSD1 [1] and on 11b-HSD1 [2] were 1 to 10 µM and under 1 µM, respectively. Consider `COc1cccc(C[C@@H]2CCN([C@@H](C)c3ccccc3)C2=O)c1` [Compound 20], for which the IC50 on 11b-HSD1 [1] and at 11b-HSD1 [2] was over 10 µM each time. `COc1ccc(C[C@H]2CCN([C@@H](C)c3ccccc3)C2=O)cc1` [Compound 21]: the results for the IC50 at 11b-HSD1 [1] and at 11b-HSD1 [2] were 1 to 10 µM and under 1 µM, respectively. In the same order, the values of `COc1ccc(C[C@@H]2CCN([C@@H](C)c3ccccc3)C2=O)cc1` [Compound 22] are over 10 µM and 1 to 10 µM.

In the case of `N#Cc1ccccc1CC1CCN(CCc2ccccc2)C1=O` (stereo not drawn) [Compound 23], the IC50 is 1 to 10 µM on 11b-HSD1 [1] and under 1 µM on 11b-HSD1 [2]. In the same order, the values of `COc1cccc(CC2CCN(CCc3ccccc3)C2=O)c1` (stereo not drawn) [Compound 24] are 1 to 10 µM and over 10 µM. Turning to `Cc1ccc(CC2CCN(Cc3ccccc3)C2=O)cc1` (stereo not drawn) [Compound 25], the IC50 on 11b-HSD1 [1] is over 10 µM; at 11b-HSD1 [2], under 1 µM. On to `Cc1ccc(C[C@H]2CCN([C@H](C)c3ccccc3)C2=O)cc1` [Compound 26], for which the IC50 on 11b-HSD1 [1] was over 10 µM; at 11b-HSD1 [2], 1 to 10 µM. Turning to `Cc1cccc(CC2CCN(CCc3ccccc3)C2=O)c1` (stereo not drawn) [Compound 29], the IC50 on 11b-HSD1 [1] and at 11b-HSD1 [2] was 1 to 10 µM throughout. Turning to `COc1ccccc1CC1CCN(CCc2ccccc2)C1=O` (stereo not drawn) [Compound 33], the values for the IC50 at 11b-HSD1 [1] and at 11b-HSD1 [2] were over 10 µM and under 1 µM, respectively. In the case of `O=C1C(Cc2ccccc2)CCN1CCc1ccccc1` (stereo not drawn) [Compound 34], the IC50 was over 10 µM at 11b-HSD1 [1] and 1 to 10 µM at 11b-HSD1 [2]. As for `C[C@H](c1ccccc1)N1CC[C@H](Cc2ccccc2)C1=O` [Compound 36], the IC50 is over 10 µM on 11b-HSD1 [1] and 1 to 10 µM on 11b-HSD1 [2]. Take `C[C@H](c1ccccc1)N1CC[C@@H](Cc2ccccc2)C1=O` [Compound 37]: the IC50 on 11b-HSD1 [1] was over 10 µM; at 11b-HSD1 [2], 1 to 10 µM. Consider `COc1ccccc1C[C@@H]1CCN([C@H](C)c2ccccc2)C1=O` [Compound 38], for which the figures for the IC50 on 11b-HSD1 [1] and on 11b-HSD1 [2] were over 10 µM and 1 to 10 µM, respectively. For `COc1ccccc1C[C@H]1CCN([C@H](C)c2ccccc2)C1=O` [Compound 39], the IC50 at 11b-HSD1 [1] was over 10 µM; on 11b-HSD1 [2], 1 to 10 µM. Take `C[C@H](c1ccccc1)N1CC[C@@H](Cc2ccccc2Cl)C1=O` [Compound 40]: the IC50 at 11b-HSD1 [1] is 1 to 10 µM; on 11b-HSD1 [2] it was under 1 µM. Turning to `C[C@H](c1ccccc1)N1CC[C@@H](Cc2cccc(Cl)c2Cl)C1=O` [Compound 42], the IC50 is over 10 µM at 11b-HSD1 [1] and 1 to 10 µM at 11b-HSD1 [2]. In the case of `C[C@H](c1ccccc1)N1CC[C@H](Cc2cccc(Cl)c2Cl)C1=O` [Compound 43], the IC50 at 11b-HSD1 [1] and on 11b-HSD1 [2] was 1 to 10 µM throughout. Consider `C[C@H](c1ccccc1)N1CC[C@@H](Cc2c(Cl)cccc2Cl)C1=O` [Compound 44], for which the results for the IC50 on 11b-HSD1 [1] and at 11b-HSD1 [2] were over 10 µM and 1 to 10 µM, respectively. Turning to `C[C@H](c1ccccc1)N1CC[C@@H](Cc2cccc(Cl)c2)C1=O` [Compound 46], the IC50 at 11b-HSD1 [1] and at 11b-HSD1 [2] was over 10 µM throughout. In the case of `C[C@H](c1ccccc1)N1CC[C@H](Cc2cccc(Cl)c2)C1=O` [Compound 47], the figures for the IC50 on 11b-HSD1 [1] and at 11b-HSD1 [2] were over 10 µM and 1 to 10 µM, respectively. Take `COc1cccc(CC2CCN(Cc3ccccc3)C2=O)c1` (stereo not drawn) [Compound 48]: the results for the IC50 on 11b-HSD1 [1] and on 11b-HSD1 [2] were over 10 µM and 1 to 10 µM, respectively. With `C[C@H](c1ccccc1)N1CC[C@@H](Cc2ccccc2C#N)C1=O` [Compound 49], the IC50 was 1 to 10 µM at 11b-HSD1 [1] and under 1 µM at 11b-HSD1 [2]. In the same order, the values of `COc1ccc(C[C@@H]2CCN([C@H](C)c3ccccc3)C2=O)cc1` [Compound 50] are over 10 µM and 1 to 10 µM. On to `O=C1C(Cc2cccc(Cl)c2)CCN1Cc1ccccc1` (stereo not drawn) [Compound 51], for which the IC50 was over 10 µM on 11b-HSD1 [1] and 1 to 10 µM on 11b-HSD1 [2]. In the case of `COc1cccc(C[C@@H]2CCN([C@H](C)c3ccccc3)C2=O)c1` [Compound 52], the results for the IC50 at 11b-HSD1 [1] and at 11b-HSD1 [2] were over 10 µM and 1 to 10 µM, respectively. Taken in the same sequence, the figures for `O=C1C(Cc2cccc(O)c2)CCN1Cc1ccccc1` (stereo not drawn) [Compound 53] were over 10 µM and 1 to 10 µM. For the compound `N#Cc1ccccc1CC1CCN(Cc2ccccc2)C1=O` (stereo not drawn) [Compound 54], the IC50 on 11b-HSD1 [1] was over 10 µM; on 11b-HSD1 [2], 1 to 10 µM.

Turning to `Cc1ccccc1CC1CCN(Cc2ccccc2)C1=O` (stereo not drawn) [Compound 55], the results for the IC50 at 11b-HSD1 [1] and at 11b-HSD1 [2] were over 10 µM and 1 to 10 µM, respectively. Regarding `Cc1cccc(CC2CCN(Cc3ccccc3)C2=O)c1` (stereo not drawn) [Compound 56], the values for the IC50 at 11b-HSD1 [1] and at 11b-HSD1 [2] were over 10 µM and 1 to 10 µM, respectively. For the compound `O=C1C(Cc2cccc(Cl)c2Cl)CCN1Cc1ccccc1` (stereo not drawn) [Compound 58], the IC50 on 11b-HSD1 [1] and at 11b-HSD1 [2] was 1 to 10 µM in each case. As to `COc1ccccc1CC1CCN(Cc2ccccc2)C1=O` (stereo not drawn) [Compound 60], the IC50 was over 10 µM on 11b-HSD1 [1] and 1 to 10 µM at 11b-HSD1 [2].

Take `O=C1C(Cc2ccccc2)CCN1Cc1ccccc1` (stereo not drawn) [Compound 61]: the IC50 on 11b-HSD1 [1] is over 10 µM; on 11b-HSD1 [2], 1 to 10 µM. Consider `C[C@@H](c1ccccc1)N1CCC(C)(c2ccccc2)C1=O` (stereo partly drawn) [Compound 166], for which the IC50 on 11b-HSD1 [2] was 1 to 10 µM. Regarding `C[C@H](c1ccccc1)N1CCC(C)(c2ccccc2)C1=O` (stereo partly drawn) [Compound 167], the IC50 at 11b-HSD1 [2] was over 10 µM.
